Columns and labels:
Type in all cases: biochemical
SMARCA2 [1] = target: T1, SMARCA2 (Homo sapiens, UniProt P51531); assay: High-throughput screen (HTS) of 40,000 compounds, ATPase assay; conditions: HTS against human SMARCA2
T1 construct: The SMARCA2-1 gene (amino acids 437-1493) encompassing all domains; made in house; host or cells: expiSF9 insect cells (baculovirus, pFASTBac1)
Excerpt: The SMARCA2-1 gene (amino acids 437-1493) encompassing all domains (HAS, BRK, ATPase and Bromodomain) required for DNA binding and ATPase activity were cloned into a pFASTBac1 plasmid for insect cell expression (FIG. 2A). In brief, one positive colony was selected and grown to produce enough bacmid DNA. The purified bacmid DNA was used to transfect expiSF9 insect cells using ExpiFectamine protocol as recommended by the manufacturer (Invitrogen). The P0 virus was first generated from the transfected cells, which was subsequently used to generate a P1 virus stock to have enough virus for several rounds of infections and/or large-scale production of SMARCA2-1 enzyme. Next, the experimental conditions were optimized for highest expression of this enzyme and the cultures scaled up to express and purify the enzyme by successive passage of soluble fraction through affinity, ion-exchange, and size exclusion chromatography steps (FIG. 2B). Next, a 29-mer double stranded DNA termed as DNA_EEPD1 (sequence below) was used to measure ATPase activity of SMARCA2 (FIG. 2C and FIG. 2D) and its inhibition by the small molecules described herein (FIG. 4D).
(§1) In brief, the disclosed ATPase assay is based on the inorganic phosphate (Pi) release from the enzymatic reaction, wherein the substrate 2-amino-6-mercapto-7-methylpurine ribose (MESG) is converted by purine phosphorylase (PNP) to ribose 1-phosphate and 2-amino-6-mercapto-7-methylpurine. This conversion changes the spectrophotometric shift of MSEG absorbance from 330 nm to 360 nm (FIG. 1C and FIG. 1D).
Briefly, human SMARCA2 was purified, and a high-throughput screen (HTS) of 40,000 compounds was conducted. […] When cells reached 90% confluency, cells were harvested, washed twice in 1×PBS, counted using trypan blue exclusion method. […] Cells were monitored for 72 hrs. by live cell imaging method (Incucyte S3) taking images every two hours. The confluency was determined and plotted against time (hours) by using Prism software.

SMARCA2 [2] = target: T1, SMARCA2; assay: Dose response experiment, ATPase assay
Excerpt: The SMARCA2-1 gene (amino acids 437-1493) encompassing all domains (HAS, BRK, ATPase and Bromodomain) required for DNA binding and ATPase activity were cloned into a pFASTBac1 plasmid for insect cell expression (FIG. 2A). In brief, one positive colony was selected and grown to produce enough bacmid DNA. The purified bacmid DNA was used to transfect expiSF9 insect cells using ExpiFectamine protocol as recommended by the manufacturer (Invitrogen). The P0 virus was first generated from the transfected cells, which was subsequently used to generate a P1 virus stock to have enough virus for several rounds of infections and/or large-scale production of SMARCA2-1 enzyme. […]
as §1
Exemplary compounds were evaluated for their ability to inhibit human SMARCA2 in ATPase assays as detailed in Table 2 below. […]

SMARCA2 [3] = target: T1, SMARCA2; assay: Secondary ATPase assay
Description: Exemplary compounds were evaluated for their ability to inhibit human SMARCA2 in ATPase assays as detailed in Table 2 below. Dose response curves for compound nos.

T1 sequence (P51531 437-1493): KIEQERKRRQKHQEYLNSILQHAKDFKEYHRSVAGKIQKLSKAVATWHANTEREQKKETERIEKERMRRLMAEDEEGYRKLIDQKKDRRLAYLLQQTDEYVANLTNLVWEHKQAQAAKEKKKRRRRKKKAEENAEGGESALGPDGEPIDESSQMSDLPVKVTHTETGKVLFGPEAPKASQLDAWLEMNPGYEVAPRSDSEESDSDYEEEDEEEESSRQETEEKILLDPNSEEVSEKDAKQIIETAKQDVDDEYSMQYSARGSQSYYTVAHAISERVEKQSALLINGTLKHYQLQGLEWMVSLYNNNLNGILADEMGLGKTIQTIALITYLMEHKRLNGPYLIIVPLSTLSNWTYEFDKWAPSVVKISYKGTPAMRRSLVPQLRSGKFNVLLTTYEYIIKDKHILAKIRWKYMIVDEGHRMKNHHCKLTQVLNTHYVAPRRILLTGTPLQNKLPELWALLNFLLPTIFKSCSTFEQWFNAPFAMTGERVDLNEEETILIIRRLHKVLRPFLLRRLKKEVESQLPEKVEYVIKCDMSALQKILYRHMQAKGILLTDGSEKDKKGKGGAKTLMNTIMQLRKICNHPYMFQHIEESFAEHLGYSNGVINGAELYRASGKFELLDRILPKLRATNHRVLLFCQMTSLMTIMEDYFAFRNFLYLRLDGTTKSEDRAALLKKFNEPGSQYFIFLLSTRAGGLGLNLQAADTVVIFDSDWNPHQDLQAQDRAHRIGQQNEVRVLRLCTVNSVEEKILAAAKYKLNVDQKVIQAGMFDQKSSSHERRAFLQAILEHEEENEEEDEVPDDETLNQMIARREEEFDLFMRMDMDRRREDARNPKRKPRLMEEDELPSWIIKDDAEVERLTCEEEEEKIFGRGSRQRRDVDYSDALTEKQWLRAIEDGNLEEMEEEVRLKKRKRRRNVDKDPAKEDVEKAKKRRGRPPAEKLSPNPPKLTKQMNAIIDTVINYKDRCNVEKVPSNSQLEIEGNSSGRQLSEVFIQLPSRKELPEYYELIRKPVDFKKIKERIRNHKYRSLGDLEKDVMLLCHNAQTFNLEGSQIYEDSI

Row | % ATPase activity in HTS (SMARCA2 [1]) | IC50 (SMARCA2 [2]) | IC50 (SMARCA2 [3]) | Structure (SMILES)
1 | 97.3% | – | – | O[C@@H]1CC[C@H](Nc2nc(NCc3ccc(Cl)c(Cl)c3)c3ccccc3n2)C1 [Compound 6]
2 | 10.6% | 14.8 µM | 5 µM | Clc1ccc(CNc2nc(NC3CCCC3)nc3ccccc23)cc1Cl [Compound 8]
3 | 26.9% | 25.3 µM | – | COc1cc2nc(NC3CCCC3)nc(NCc3ccc(Cl)c(Cl)c3)c2cc1OC [Compound 7]

— US20250375450A1, “SMARCA2/4 INHIBITION AS A STRATEGY TO TREAT TUMORS THAT HARBOR ABERRANT BAF ASSEMBLIES” (BOARD OF REGENTS, THE UNIVERSITY OF TEXAS SYSTEM, priority 2022, published 2025)
